Activity calls are given as the source filed them.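 Rule for the calls: active = mean EC50 below 10 µM; inactive = the rest.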
Target: Type-1 angiotensin II receptor (Homo sapiens) (UniProt P30556)
Test: AGTR1 beta-arrestin recruitment agonism – cell-based, CHO-K1 AGTR1, luminescence, set 5, selectivity assay for APJ receptor agonist project, SAR follow-up (AID 504532)
Conditions: CHO-K1 AGTR1 beta-arrestin PathHunter, 90 min

Type-1 angiotensin II receptor (Homo sapiens), sequence (P30556 whole entry, looked up): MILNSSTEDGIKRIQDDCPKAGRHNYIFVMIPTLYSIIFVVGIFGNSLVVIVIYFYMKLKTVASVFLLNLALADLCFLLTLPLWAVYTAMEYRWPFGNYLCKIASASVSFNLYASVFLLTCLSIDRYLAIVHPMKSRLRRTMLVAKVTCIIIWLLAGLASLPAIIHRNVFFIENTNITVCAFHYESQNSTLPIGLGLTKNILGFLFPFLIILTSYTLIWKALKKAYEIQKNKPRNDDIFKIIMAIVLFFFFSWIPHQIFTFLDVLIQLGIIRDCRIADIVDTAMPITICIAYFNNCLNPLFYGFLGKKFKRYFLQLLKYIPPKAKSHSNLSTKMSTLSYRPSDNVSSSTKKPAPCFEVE

Row | EC50 | Structure (SMILES)
1 | > 79 µM (inactive) | COc1cccc(S(=O)(=O)O/N=C2\C=C(C3CCCCC3)C(=O)C=C2C)c1
2 | > 79 µM (inactive) | CC1=CC(=O)C(C(C)C)=C/C1=N/OS(=O)(=O)c1cccc(C#N)c1
3 | > 79 µM (inactive) | CC1=CC(=O)C(C(C)(C)C)=C/C1=N/OS(=O)(=O)c1cccc(C#N)c1
4 | > 79 µM (inactive) | CC1=CC(=O)C(C2CCCCC2)=C/C1=N/OS(=O)(=O)c1cccc(C#N)c1
5 | > 79 µM (inactive) | CC1=CC(=O)C(C2CCCCC2)=C/C1=N\OS(=O)(=O)c1cccc(Cl)c1
6 | > 79 µM (inactive) | CC1=CC(=O)C(C2CCCCC2)=C/C1=N/OS(=O)(=O)c1cccc(Br)c1
7 | > 79 µM (inactive) | CC1=CC(=O)C(C2CCCCC2)=C/C1=N\OS(=O)(=O)c1cn(C)cn1
8 | > 79 µM (inactive) | CC1=CC(=O)C(C(C)C)=C/C1=N\OS(=O)(=O)c1cccc(Cl)c1
9 | > 79 µM (inactive) | CC1=CC(=O)C(C2CCCCC2)=C/C1=N/OS(=O)(=O)c1cccc(C)c1
10 | > 79 µM (inactive) | CC1=CC(=O)C(C2CCCCC2)=C/C1=N\OS(=O)(=O)c1c(Cl)cccc1Cl
11 | > 79 µM (inactive) | CC1=CC(=O)C(C2CCCCC2)=C/C1=N\OS(=O)(=O)c1ccccc1Cl
12 | > 79 µM (inactive) | CC1=CC(=O)C(C(C)C)=C/C1=N/OS(=O)(=O)c1cccc(C)c1

The next lines start with the molecule.

Row | Structure (SMILES) | EC50
13 | Cc1cc(O)c(C(C)(C)C)cc1N=O | > 79 µM (inactive)
14 | CC1=CC(=O)C(C(C)(C)C)=C/C1=N/OS(=O)(=O)c1cccc(Br)c1 | > 79 µM (inactive)
15 | CC1=CC(=O)C(C(C)C)=C/C1=N\OS(=O)(=O)c1ccccc1Cl | > 79 µM (inactive)
16 | CC1=CC(=O)C(C(C)(C)C)=C/C1=N\OS(=O)(=O)c1c(Cl)cccc1Cl | > 79 µM (inactive)
17 | CC1=CC(=O)C(C(C)C)=C/C1=N\OS(=O)(=O)c1cn(C)cn1 | > 79 µM (inactive)
18 | COc1cccc(S(=O)(=O)O/N=C2\C=C(C(C)C)C(=O)C=C2C)c1 | > 79 µM (inactive)
19 | CC1=CC(=O)C(C(C)C)=C/C1=N\OS(=O)(=O)C1CCCCC1 | > 79 µM (inactive)
20 | CC1=CC(=O)C(C(C)(C)C)=C/C1=N/OS(=O)(=O)c1cccc(C)c1 | > 79 µM (inactive)
21 | Cc1cc(N=O)c(C(C)C)cc1O | > 79 µM (inactive)
22 | CC1=CC(=O)C(C(C)C)=C/C1=N/OS(=O)(=O)c1cccc(Br)c1 | > 79 µM (inactive)
23 | CC1=CC(=O)C(C(C)(C)C)=C/C1=N\OS(=O)(=O)c1ccccc1Cl | > 79 µM (inactive)
24 | CC1=CC(=O)C(C(C)C)=C/C1=N\OS(=O)(=O)c1c(Cl)cccc1Cl | > 79 µM (inactive)
25 | CC1=CC(=O)C(C(C)(C)C)=C/C1=N\OS(=O)(=O)C1CCCCC1 | > 79 µM (inactive)
26 | CC(C)C1=CC(=NOS(=O)(=O)c2ccccc2)C=CC1=O | > 79 µM (inactive)
27 | N#Cc1ccc(S(=O)(=O)ON=C2C=CC(=O)C(c3ccccc3)=C2)cc1 | > 79 µM (inactive)
28 | COc1cccc(S(=O)(=O)O/N=C2\C=C(C(C)(C)C)C(=O)C=C2C)c1 | > 79 µM (inactive)
29 | CC1=CC(=O)C(C(C)(C)C)=C/C1=N\OS(=O)(=O)c1cn(C)cn1 | > 79 µM (inactive)
30 | CC1=CC(=O)C(C(C)(C)C)=C/C1=N\OS(=O)(=O)c1cccc(Cl)c1 | > 79 µM (inactive)
31 | O=C1C=CC(=NOS(=O)(=O)c2ccccc2)C=C1c1ccccc1 | > 79 µM (inactive)

— PubChem BioAssay AID504532 (Sanford-Burnham Center for Chemical Genomics, 2011)
